Data reported in ChEMBL document CHEMBL1201862, “PubChem BioAssay data set” (2004).
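A five-concentration, 48-hour dose response in 96-well plates underlies each endpoint, interpolated linearly between surrounding concentrations. Here, GI50 denotes the concentration required for 50% inhibition of growth.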 Calls of active or inactive are those of the source. Cut-off read from the data, not from the text of the source: active = GI50 up to about 1.1 µM and inactive = higher. Where a SMILES comes first, the peptide text is derived from it. [ ]: non-standard residue; d: D form. Ac5c = NC1(C(=O)O)CCCC1

How the values were obtained:
Assay in all cases: DTP human tumour cell line panel, 48 h
A549 = test system: A549
ACHN = test system: ACHN
BT-549 = test system: BT-549
CAKI-1 = test system: CAKI-1
HCC 2998 = test system: HCC 2998
HOP-62 = test system: HOP-62
Hs-578T = test system: Hs-578T
IGROV-1 = test system: IGROV-1
KM12 = test system: KM12
MDA-MB-231 = test system: MDA-MB-231
MDA-N = test system: MDA-N
PC-3 = test system: PC-3
SF-268 = test system: SF-268
SF-539 = test system: SF-539
SK-MEL-5 = test system: SK-MEL-5
SN12C = test system: SN12C
UACC-62 = test system: UACC-62
UO-31 = test system: UO-31
DU-145 = test system: DU-145

Compound | GI50 (A549) | GI50 (ACHN) | GI50 (BT-549) | GI50 (CAKI-1) | GI50 (HCC 2998) | GI50 (HOP-62) | GI50 (Hs-578T) | GI50 (IGROV-1) | GI50 (KM12) | GI50 (MDA-MB-231) | GI50 (MDA-N) | GI50 (PC-3) | GI50 (SF-268) | GI50 (SF-539) | GI50 (SK-MEL-5) | GI50 (SN12C) | GI50 (UACC-62) | GI50 (UO-31) | GI50 (DU-145)
Cn1c(=O)c2c(-c3ccccc3)onc2n(C)c1=O | 21.3 µM (inactive) | 31.9 µM (inactive) | 17.2 µM (inactive) | 42.1 µM (inactive) | 32.7 µM (inactive) | 17.1 µM (inactive) | 24.5 µM (inactive) | 20.3 µM (inactive) | 34 µM (inactive) | 49.9 µM (inactive) | 50.2 µM (inactive) | 15 µM (inactive) | 35.2 µM (inactive) | 37.9 µM (inactive) | 30.7 µM (inactive) | 30.4 µM (inactive) | 21.7 µM (inactive) | 19.5 µM (inactive) | 
Clc1ccc(-c2cc(-c3cc4cc(Br)ccc4nc3Cl)on2)cc1 | 13.2 µM (inactive) | 13.8 µM (inactive) | 20.2 µM (inactive) | 10.9 µM (inactive) | 10.3 µM (inactive) | 6 µM (inactive) | 22.8 µM (inactive) | 12.9 µM (inactive) | 15.5 µM (inactive) |  | 11.8 µM (inactive) | 16.5 µM (inactive) | 13.4 µM (inactive) | 9.08 µM (inactive) | 9.12 µM (inactive) | 16.1 µM (inactive) | 14.5 µM (inactive) | 17.3 µM (inactive) | 18.8 µM (inactive)
C/C(=N\Nc1nc2cc(Cl)ccc2s1)c1ccccn1 | 0.755 µM (active) | 0.191 µM (active) | 4.9 µM (inactive) | 0.0653 µM (active) | 11.5 µM (inactive) | 0.904 µM (active) | 2.89 µM (inactive) | 0.127 µM (active) | 0.63 µM (active) | 0.405 µM (active) | 1.73 µM (inactive) | 1.35 µM (inactive) | 0.365 µM (active) | 1.21 µM (inactive) | 0.428 µM (active) | 0.372 µM (active) | 0.673 µM (active) | 0.0685 µM (active) | 
CCCCCCNC(=O)c1cc(CCc2cc(O)ccc2O)ccc1O | 7.83 µM (inactive) | 2.66 µM (inactive) | 1.94 µM (inactive) | 3.32 µM (inactive) | 3.15 µM (inactive) | 6.24 µM (inactive) | 3.59 µM (inactive) | 2.1 µM (inactive) | 4.46 µM (inactive) | 2.25 µM (inactive) | 2.66 µM (inactive) | 2.18 µM (inactive) | 2.77 µM (inactive) |  | 4.62 µM (inactive) |  |  | 1.55 µM (inactive) | 6.78 µM (inactive)
O=C(NNC(=O)c1cc2ccccc2[nH]1)c1cc2ccccc2[nH]1 | > 100 µM (inactive) |  | > 100 µM (inactive) | > 100 µM (inactive) |  | > 100 µM (inactive) | > 100 µM (inactive) | > 100 µM (inactive) | > 100 µM (inactive) | > 100 µM (inactive) | > 100 µM (inactive) | > 100 µM (inactive) | > 100 µM (inactive) | > 100 µM (inactive) | > 100 µM (inactive) | > 100 µM (inactive) | > 100 µM (inactive) | > 100 µM (inactive) | > 100 µM (inactive)
NC1(C(=O)NC2(C(=O)O)CCCC2)CCCC1 (H-[Ac5c]-[Ac5c]-OH) | > 100 µM (inactive) | > 100 µM (inactive) | > 100 µM (inactive) | > 100 µM (inactive) |  | > 100 µM (inactive) | > 100 µM (inactive) | > 100 µM (inactive) | > 100 µM (inactive) | > 100 µM (inactive) | > 100 µM (inactive) | > 100 µM (inactive) | > 100 µM (inactive) | > 100 µM (inactive) | > 100 µM (inactive) | > 100 µM (inactive) | > 100 µM (inactive) | > 100 µM (inactive) | > 100 µM (inactive)
OCCN(/N=C\c1ccc2ccccc2c1)C1=NCCN1 | 59.2 µM (inactive) | 29.1 µM (inactive) | 42.8 µM (inactive) |  | 16.3 µM (inactive) | 42.6 µM (inactive) | 36.1 µM (inactive) | 35.1 µM (inactive) | 38.2 µM (inactive) | 12.8 µM (inactive) | 17.2 µM (inactive) | 24.9 µM (inactive) | 35.1 µM (inactive) | 21 µM (inactive) | 18.3 µM (inactive) | 25.3 µM (inactive) | 21.3 µM (inactive) | 54.7 µM (inactive) | 31.6 µM (inactive)
CC1(C)OC(=O)N(c2ccccc2)C12C=Cc1cc([N+](=O)[O-])cc([N+](=O)[O-])c1O2 (stereo unspecified) | > 100 µM (inactive) | > 100 µM (inactive) | > 100 µM (inactive) | > 100 µM (inactive) | > 100 µM (inactive) | 97.9 µM (inactive) | 59.8 µM (inactive) | > 100 µM (inactive) | > 100 µM (inactive) | > 100 µM (inactive) | > 100 µM (inactive) | 91.2 µM (inactive) | 98.9 µM (inactive) |  | > 100 µM (inactive) | > 100 µM (inactive) | 61 µM (inactive) | 34.2 µM (inactive) | > 100 µM (inactive)
CN(C)c1nncc2[nH]cnc12 | > 100 µM (inactive) | > 100 µM (inactive) | > 100 µM (inactive) | > 100 µM (inactive) |  | > 100 µM (inactive) | > 100 µM (inactive) | > 100 µM (inactive) | 74.8 µM (inactive) | > 100 µM (inactive) |  | > 100 µM (inactive) | > 100 µM (inactive) | > 100 µM (inactive) | > 100 µM (inactive) | > 100 µM (inactive) | > 100 µM (inactive) | > 100 µM (inactive) | > 100 µM (inactive)
O=C1N[C@@H](c2c[nH]c3cc(Br)ccc23)C(=O)N[C@H]1c1c[nH]c2cc(Br)ccc12 | > 100 µM (inactive) | > 100 µM (inactive) | > 100 µM (inactive) |  | > 100 µM (inactive) | > 100 µM (inactive) | > 100 µM (inactive) | > 100 µM (inactive) | 83.9 µM (inactive) | 17.1 µM (inactive) | > 100 µM (inactive) | > 100 µM (inactive) | 47.4 µM (inactive) | 79.8 µM (inactive) | > 100 µM (inactive) | > 100 µM (inactive) | > 100 µM (inactive) | > 100 µM (inactive) | > 100 µM (inactive)
O=C(Sc1c(-c2ccccc2)c(=O)n(-c2ccccc2)c(=S)n1-c1ccccc1)c1cccs1 | > 100 µM (inactive) | 81.8 µM (inactive) | > 100 µM (inactive) | > 100 µM (inactive) |  | > 100 µM (inactive) | > 100 µM (inactive) | 49.7 µM (inactive) | > 100 µM (inactive) |  | 70 µM (inactive) | 73.8 µM (inactive) | > 100 µM (inactive) |  | 19.2 µM (inactive) | 50.4 µM (inactive) | > 10 µM (inactive) | > 100 µM (inactive) | > 100 µM (inactive)
Brc1ccc(C2C3CSc4ccccc4C3=NN2c2ccccc2)cc1 (stereo unspecified) | 56.9 µM (inactive) |  | > 100 µM (inactive) | 41 µM (inactive) |  | > 100 µM (inactive) | > 100 µM (inactive) | 74.8 µM (inactive) | 44.5 µM (inactive) | > 100 µM (inactive) | > 100 µM (inactive) | 43.8 µM (inactive) | 70.1 µM (inactive) | 59 µM (inactive) | 31.8 µM (inactive) | > 100 µM (inactive) | 75.7 µM (inactive) | 94.8 µM (inactive) | > 100 µM (inactive)
CC(C)c1nc2c(Cl)c3ncccc3cc2[nH]c1=O | > 100 µM (inactive) | 44 µM (inactive) | 54.5 µM (inactive) | 94.6 µM (inactive) |  | 32.7 µM (inactive) | 25.8 µM (inactive) | 14.8 µM (inactive) | 80.4 µM (inactive) | 73.6 µM (inactive) | > 100 µM (inactive) | > 100 µM (inactive) | 34.1 µM (inactive) | > 100 µM (inactive) | 73.6 µM (inactive) | > 100 µM (inactive) | > 100 µM (inactive) | > 100 µM (inactive) | > 100 µM (inactive)
COC(=O)/C=C(\S/C(=C(/c1ccc(OC)cc1)n1cc(C(=O)OC)c(C(=O)OC)n1)c1ccc(OC)cc1)C(=O)OC | 77.6 µM (inactive) | 5.13 µM (inactive) | 65.3 µM (inactive) | 2.58 µM (inactive) |  | 44.9 µM (inactive) | 47.9 µM (inactive) | 6.4 µM (inactive) | 76.2 µM (inactive) | > 100 µM (inactive) | 19.6 µM (inactive) | 26.6 µM (inactive) | 17.1 µM (inactive) | 21.6 µM (inactive) | 35.5 µM (inactive) | 15.5 µM (inactive) | 34.9 µM (inactive) | 4.14 µM (inactive) | 15.6 µM (inactive)
CC(CO)(CO)/N=C/c1cc(I)cc(I)c1O | 54.8 µM (inactive) | 25 µM (inactive) | 14 µM (inactive) | 22.2 µM (inactive) |  | 11.2 µM (inactive) | 23.6 µM (inactive) | 9.4 µM (inactive) | 14.5 µM (inactive) | 18.7 µM (inactive) | 19.7 µM (inactive) | 14.2 µM (inactive) | 5.62 µM (inactive) | 14.5 µM (inactive) | 13.8 µM (inactive) | 13.3 µM (inactive) | 16 µM (inactive) | 12 µM (inactive) | 11.6 µM (inactive)
C/C(=N\Nc1nc2ccccc2n1C)c1cc2ccccc2cn1 | 0.0327 µM (active) | < 0.01 µM (active) | 2.8 µM (inactive) | < 0.01 µM (active) | 11.6 µM (inactive) | 0.153 µM (active) | 0.0933 µM (active) | < 0.0128 µM (active) | < 0.025 µM (active) | < 0.01 µM (active) | 0.176 µM (active) |  | < 0.0294 µM (active) | 0.441 µM (active) | 0.0286 µM (active) | < 0.01 µM (active) | 0.0403 µM (active) | < 0.01 µM (active) | 1.58 µM (inactive)
